# Reference: paper PMC10938303 (Bioorganic & medicinal chemistry letters, 2022)
# Tests used:
# [1] = In vitro clearance, human; type: in vitro ADME
# In vitro clearance, rat = type: in vitro ADME
# hM5 = target: T1, hM5 (Homo sapiens, UniProt P08912); assay: Calcium mobilization assay with hM5-CHO cells, EC80 acetylcholine; type: cell-based; settings: for hM5 IC50: hM5-CHO cells, EC80 acetylcholine, one experiment in triplicate
# T1 sequence (P08912 1-532): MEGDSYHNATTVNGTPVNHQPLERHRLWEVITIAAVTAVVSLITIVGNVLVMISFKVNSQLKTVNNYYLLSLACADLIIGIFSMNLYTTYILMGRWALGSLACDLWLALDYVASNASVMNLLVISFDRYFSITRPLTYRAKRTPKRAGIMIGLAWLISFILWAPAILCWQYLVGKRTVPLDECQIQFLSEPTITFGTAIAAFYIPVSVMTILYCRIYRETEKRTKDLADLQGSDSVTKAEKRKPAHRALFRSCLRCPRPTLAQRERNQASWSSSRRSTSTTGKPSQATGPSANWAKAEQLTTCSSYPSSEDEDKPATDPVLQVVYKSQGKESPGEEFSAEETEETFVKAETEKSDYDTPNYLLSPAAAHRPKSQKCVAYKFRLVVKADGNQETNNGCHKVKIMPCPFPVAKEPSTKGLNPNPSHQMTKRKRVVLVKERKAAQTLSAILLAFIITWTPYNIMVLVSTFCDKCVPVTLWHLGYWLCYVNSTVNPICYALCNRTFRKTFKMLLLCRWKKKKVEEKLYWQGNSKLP
SMILES,Predicted CLhep (h) [1],"Predicted CLhep (r) (In vitro clearance, rat)",hM5 IC50 (hM5),fold more potent than (S)-12a (12c) (hM5 IC50) (hM5; versus 12c)
O=C(Nc1ccc2scnc2c1)C12CC1CN(S(=O)(=O)c1ccc3c(c1)CCO3)C2 (centres unmarked) [12h],18 mL/min/kg,60 mL/min/kg,–,–
C[C@H]1CN(S(=O)(=O)c2ccc3c(c2)CCO3)C[C@@H]1C(=O)Nc1ccc2scnc2c1 [12f],4 mL/min/kg,29 mL/min/kg,–,–
Cc1nn(C)cc1S(=O)(=O)N1CC[C@@H](C(=O)Nc2ccc3scnc3c2)C1 [17a],–,–,inactive,–
O=C(Nc1ccc2scnc2c1)[C@H]1CN(S(=O)(=O)c2ccc3c(c2)CCO3)C[C@@H]1C(F)(F)F [12g],–,–,inactive,–
C[C@@H]1CN(S(=O)(=O)c2ccc3c(c2)CCO3)C[C@@H]1C(=O)Nc1ccc2scnc2c1 [12e],19 mL/min/kg,64 mL/min/kg,–,–
O=C(Nc1ccc2scnc2c1)C1CN(S(=O)(=O)c2ccc3c(c2)CCO3)C1 [12b],16 mL/min/kg,57 mL/min/kg,–,–
Cn1cc(S(=O)(=O)N2CC[C@@H](C(=O)Nc3ccc4scnc4c3)C2)c(C(F)(F)F)n1 [17b],–,–,inactive,–

# Further lines, results first:
Predicted CLhep (h) [1],"Predicted CLhep (r) (In vitro clearance, rat)",hM5 IC50 (hM5),fold more potent than (S)-12a (12c) (hM5 IC50) (hM5; versus 12c),SMILES
–,–,significantly less active,–,O=C(Nc1ccc2scnc2c1)[C@@H]1CCN(S(=O)(=O)c2ccc3c(c2)CCC3)C1 [17h]
16 mL/min/kg,52 mL/min/kg,–,–,O=C(Nc1ccc2scnc2c1)[C@H]1CCN(S(=O)(=O)c2ccc3c(c2)CCO3)C1 [12c]
–,–,inactive,–,O=C(Nc1ccc2scnc2c1)[C@@H]1CCN(S(=O)(=O)c2ccc(Cl)nc2)C1 [17d]
14 mL/min/kg,51 mL/min/kg,–,–,O=C(Nc1ccc2scnc2c1)[C@@H]1CCN(S(=O)(=O)c2ccc3ncccc3c2)C1 [17i]
13 mL/min/kg,29 mL/min/kg,–,–,O=C(Nc1ccc2scnc2c1)[C@@H]1CCN(S(=O)(=O)c2ccc3ncsc3c2)C1 [17j]
15 mL/min/kg,59 mL/min/kg,–,21 fold,O=C(Nc1ccc2scnc2c1)[C@@H]1CCN(S(=O)(=O)c2ccc3c(c2)CCO3)C1 [12d]
15 mL/min/kg,49 mL/min/kg,–,–,[2H]C1([2H])Oc2ccc(S(=O)(=O)N3CC[C@@H](C(=O)Nc4ccc5scnc5c4)C3)cc2C1([2H])[2H] [17f]
16 mL/min/kg,55 mL/min/kg,–,–,O=C(Nc1ccc2scnc2c1)C1CCN(S(=O)(=O)c2ccc3c(c2)CCO3)C1 (centres unmarked) [12a]
12 mL/min/kg,55 mL/min/kg,–,–,O=C(Nc1ccc2scnc2c1)[C@@H]1CCN(S(=O)(=O)c2ccc3c(c2)OCO3)C1 [17g]
–,–,inactive,–,O=C(Nc1ccc2scnc2c1)[C@@H]1CCN(S(=O)(=O)c2cccnc2)C1 [17c]
